# “Also recorded” adds a separate entry of the source. Structures can show the parent of a compound that is named as a salt. Where two headings read alike, the source gives them in different places.
# What was measured:
# [1] = tested on: primary cultures of rat hippocampal neurons; test: NMDA-induced neuronal death, trypan blue exclusion; type: cell-based; details: for exacerbation of NMDA-induced neuronal death: acute NMDA, steroid 100 μM (pregnenolone 20 μM); for inhibition of NMDA-induced neuronal death: acute 30 μM NMDA, steroid 100 μM (3α5β 50 μM)
# Method: (§1) Principally neuronal cultures were prepared from hippocampal tissue of fetal Sprague-Dawley rats on day 18 of embryonic development, as previously described (Brewer et al., Brain Research 494: 65-74 (1989)). Briefly, hippocampal cells were dissociated by trituration in Ca^2+/Mg^2+-free Hank's basic salt solution (Gibco) supplemented with 4.2 mM bicarbonate, 1 mM sodium pyruvate, 20 mM HEPES, 3 mg/ml bovine serum albumin (BSA). Dissociated cells were then pelleted by centrifugation (500×g, 4 min). […] Cells were then plated onto poly-L-lysine-coated 24-well culture dishes (Nunclon) at a density of 15,000 cell/cm^2 and maintained in a humidified atmosphere containing 5% CO2/95% air at 37° C. After 48 h, nonneuronal cell division was inhibited by a 48 h exposure to 1 μM cytosine arabinoside. Cultures were subsequently maintained in serum-free DMEM plus defined components and were used for experiments 16 to 24 days after plating.
# Steroids were dissolved in DMSO (0.5% final concentration), and all treatment media contained 0.5% DMSO. […] Following exposure, cultures were washed 3 times with medium from sister cultures (conditioned medium). After the final wash, steroid or vehicle was reintroduced. Drugs were added to cultures in 25 μl of conditioned medium to yield a final volume of 0.25 ml per well. Except where otherwise noted, final steroid concentration was 100 μM.
# The ability of neurons to exclude trypan blue was used to quantitate cell viability (Dawson et al., Proc Natl Acad Sci USA 88: 6368-6371 (1991)). […] Cultures were then fixed with 4% paraformaldehyde in PBS for 30 min, at whichtime the fixative was replaced with PBS. The number of stained and unstained neurons were counted in 4 high-power fields per culture well, using an inverted phase contrast microscope under both bright field and phase contrast settings. Experiments were performed in triplicate, and all assessments were made with the experimenter blind to the treatment of each culture well. Percent cell death is expressed as follows: (number of trypan blue stained neurons)/(total number of neurons)×100%.
# (§2) All data are expressed as mean±standard error of the mean. Statistical significance was evaluated using 95% confidence limits unless otherwise noted.
# [2] = biological target: T1, NR1100+NR2A NMDA receptor (Rattus norvegicus, UniProt P35439+Q00959); test: NMDA-induced current (INMDA), Xenopus oocytes, Example 2; type: cell-based; details: 100 μM NMDA, 100 μM steroid
# T1 construct: expressed in transfected cells; host or cells: Xenopus oocytes co-injected with NR1100 and NR2A cRNA
# T1 sequence (Q00959 23-1464, other chains not shown): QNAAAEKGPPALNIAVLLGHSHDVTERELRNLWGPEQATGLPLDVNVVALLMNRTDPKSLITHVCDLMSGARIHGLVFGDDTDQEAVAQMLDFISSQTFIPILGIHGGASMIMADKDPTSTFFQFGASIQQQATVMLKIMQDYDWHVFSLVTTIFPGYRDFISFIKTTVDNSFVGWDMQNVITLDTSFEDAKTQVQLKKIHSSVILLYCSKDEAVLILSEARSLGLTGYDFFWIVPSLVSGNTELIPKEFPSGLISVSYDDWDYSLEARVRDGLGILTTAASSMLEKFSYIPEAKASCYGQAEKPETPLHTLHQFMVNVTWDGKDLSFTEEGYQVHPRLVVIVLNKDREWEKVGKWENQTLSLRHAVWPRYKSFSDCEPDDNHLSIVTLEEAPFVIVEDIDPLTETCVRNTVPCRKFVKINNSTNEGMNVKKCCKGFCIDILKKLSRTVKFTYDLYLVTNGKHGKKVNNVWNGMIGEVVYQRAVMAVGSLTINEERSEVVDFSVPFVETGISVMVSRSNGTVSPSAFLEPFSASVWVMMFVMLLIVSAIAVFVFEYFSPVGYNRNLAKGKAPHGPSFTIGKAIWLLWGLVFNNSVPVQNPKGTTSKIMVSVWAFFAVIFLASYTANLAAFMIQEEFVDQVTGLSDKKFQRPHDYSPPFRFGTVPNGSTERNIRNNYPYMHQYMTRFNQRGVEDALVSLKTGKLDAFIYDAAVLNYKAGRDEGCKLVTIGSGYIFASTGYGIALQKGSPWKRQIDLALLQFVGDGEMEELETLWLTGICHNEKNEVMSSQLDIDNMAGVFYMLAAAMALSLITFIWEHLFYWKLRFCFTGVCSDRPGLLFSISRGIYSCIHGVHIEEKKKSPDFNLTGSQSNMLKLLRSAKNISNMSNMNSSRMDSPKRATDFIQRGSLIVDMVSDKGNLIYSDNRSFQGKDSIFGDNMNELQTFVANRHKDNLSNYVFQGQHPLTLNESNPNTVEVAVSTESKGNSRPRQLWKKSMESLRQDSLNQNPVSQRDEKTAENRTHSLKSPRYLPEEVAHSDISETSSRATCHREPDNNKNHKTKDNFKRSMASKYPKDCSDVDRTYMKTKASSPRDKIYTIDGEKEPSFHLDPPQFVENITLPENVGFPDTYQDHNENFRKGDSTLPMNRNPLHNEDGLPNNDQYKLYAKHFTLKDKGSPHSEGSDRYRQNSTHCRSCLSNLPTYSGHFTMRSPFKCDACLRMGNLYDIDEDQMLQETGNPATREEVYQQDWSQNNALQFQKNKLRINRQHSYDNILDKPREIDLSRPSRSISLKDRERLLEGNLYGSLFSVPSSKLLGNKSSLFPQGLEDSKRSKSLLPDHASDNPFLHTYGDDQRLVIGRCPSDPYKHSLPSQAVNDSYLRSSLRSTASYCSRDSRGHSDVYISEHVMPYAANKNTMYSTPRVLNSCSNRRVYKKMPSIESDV
# Method: NR1100 (NR1G) and NR2A clones were kindly provided by Dr. R. S. Zukin (Albert Einstein College of Medicine, New York, N.Y.) and Dr. S. Nakanishi (Faculty of Medicine, Kyoto University, Kyoto, Japan), respectively. mRNA was prepared through in vitro transcription of NR1100 and NR2A cDNAs using the mMessage mMachine kit (Ambion, Tex.). On the day following isolation, batches of 20-40 selected Xenopus oocytes were injected with 50 nl of prepared RNA solution (0.5 ng NR1100 and 5 ng of NR2A mRNA/oocyte). Oocytes were maintained in glass petri dishes containing Barth's solution (84 mM NaCl, 1 mM KCl, 2.4 mM NaHCO3, 0.82 mM MgSO4, 0.41 mM CaCl2, 0.33 mM Ca(NO3)2, 2.5 mM pyruvate, 0.1 mg/ml gentamycin, 7.5 mM Tris/HCl, pH 7.4) in an incubator at 18° C. Oocytes were used for electrophysiological experiments 4-10 days after injection.
# Recordings from oocytes were obtained using the two electrode voltage-clamp mode with an Axoclamp-2A amplifier (Axon Instruments). The resistance of microelectrodes, pulled from glass capillaries and filled with 3 M KCl solution, was 2.5-3.5 M. Membrane potential was clamped at −70 mV. Drugs were applied by a gravity-driven external perfusion system. Drug application and data acquisition were carried out with custom-written software implemented in the SuperScopeII programming language (GW Instruments, Somerville, Mass.).
# The degree of modulation of NMDA-induced Ca^2+ influx, cell death, and currents is expressed as the percent change, defined as (I′/I−1)×100%, where I and I′ are the NMDA-induced responses in the absence and presence of modulator, respectively. All data are expressed as mean±standard error of the mean. Statistical significance was evaluated using 95% confidence limits unless otherwise noted.
# [3] = tested on: primary cultures of rat hippocampal neurons; test: NMDA-induced increase in [Ca2+]i, Fluo-3 AM; type: cell-based; details: for reduction of NMDA-induced rise in [Ca2+]i: steroid 100 μM (3α5β 50 μM)
# Method: as §1
# DMSO was also added to controls to maintain a constant final DMSO concentration of […].
# as §2
# [4] = tested on: NMDA receptor (chick spinal cord neurons); details: Park-Chung et al. 1997; sulfate; cited from earlier work
# [5] = biological target: T1, NR1100+NR2A NMDA receptor; test: NMDA-induced currents, Xenopus oocytes, Example 1; type: cell-based; details: for effect on NMDA induced current: NR1100+NR2A, sulfate; for Percentage change in NMDA response: NR1100 + NR2A, steroid 100 μM, 100 μM NMDA, −100 mV
# Excerpt: (§3) Plasmids were obtained from the following individuals: Dr. Suzanne Zukin (Albert Einstein College of Medicine, Bronx, N.Y.), NR1100; Dr. Shigetada Nakanishi (Kyoto University Faculty of Medicine, Kyoto, Japan), NR2A; Dr. Stephen Heinemann (Salk Institute, San Diego, Calif.), GluR1 (flop), GluR3 (flop), and GluR6. Plasmids were linearized with BamH1 (NR1100), XhoI (NR2A, GluR1, GluR3) or XbaI (GluR6) prior to in vitro transcription with T3 (GluR1, GluR3, GluR6) or T7 (NR1100, NR2A) RNA polymerase using the Message Machine kit (Ambion, Austin, Tex.). […] RNA solutions (50-70 nl) were injected into oocytes for delivery of NR1100 (5 ng), NR1100:NR2A (1:10 ng), GluR1 (5 ng). GluR3 (5 ng), or GluR6 (20 ng). Oocytes were incubated in ND96 at 18-20° C. for 3-7 days prior to electrophysiological recording.
# (§4) Steroid solutions were prepared as 70-100 mM frozen stocks in dimethyl sulfoxide (DMSO). The final DMSO concentration of all recording solutions was between 0.1% to 0.5% and was constant within an experiment.
# (§5) Perfusion control and data acquisition were carried out using an automated oocyte electrophysiology workstation that was developed for the rapid collection of concentration-response data and real-time waveform analysis (Yaghoubi et al., Soc. Neurosci. Abstr. 20: 1109 (1995)). This system is implemented on a Macintosh IIci computer (Apple Computer, Cupertino, Calif.) equipped with MacA-DIOS II data acquisition and control hardware (GW Instruments, Somerville, Mass.). Drug application is controlled by the computer through a series of valves, using custom-written software based on the SuperScope II development environment, improving the efficiency and reproducibility of data collection. Experiments were carried out using an Axoclamp-2A voltage clamp amplifier (Axon Instruments, Foster City, Calif.) in two-electrode voltage clamp mode. Intracellular microelectrodes (1-3 MΩ) were filled with 3 M KCl. […] Membrane potential was clamped at −60 to −70 mV and stepped to −100 mV at the start of data acquisition unless otherwise stated. […] Current and voltage recordings were digitized at 100 Hz for analysis. GluR6 injected oocytes were treated for 10 min with 10 μg/ml concanavalin A to prevent fast desensitization.
# (§6) Results are expressed as mean±S.E.M. Statistical comparisons were made using Student's t-test.
# GluR3 AMPA receptor = biological target: T2, GluR3 AMPA receptor (Rattus norvegicus, UniProt P19492); test: Kainate-induced currents, Xenopus oocytes injected with GluR3 cRNA; type: cell-based
# T2 construct: expressed in transfected cells; host or cells: Xenopus oocytes injected with GluR3 cRNA
# T2 sequence (P19492 23-888): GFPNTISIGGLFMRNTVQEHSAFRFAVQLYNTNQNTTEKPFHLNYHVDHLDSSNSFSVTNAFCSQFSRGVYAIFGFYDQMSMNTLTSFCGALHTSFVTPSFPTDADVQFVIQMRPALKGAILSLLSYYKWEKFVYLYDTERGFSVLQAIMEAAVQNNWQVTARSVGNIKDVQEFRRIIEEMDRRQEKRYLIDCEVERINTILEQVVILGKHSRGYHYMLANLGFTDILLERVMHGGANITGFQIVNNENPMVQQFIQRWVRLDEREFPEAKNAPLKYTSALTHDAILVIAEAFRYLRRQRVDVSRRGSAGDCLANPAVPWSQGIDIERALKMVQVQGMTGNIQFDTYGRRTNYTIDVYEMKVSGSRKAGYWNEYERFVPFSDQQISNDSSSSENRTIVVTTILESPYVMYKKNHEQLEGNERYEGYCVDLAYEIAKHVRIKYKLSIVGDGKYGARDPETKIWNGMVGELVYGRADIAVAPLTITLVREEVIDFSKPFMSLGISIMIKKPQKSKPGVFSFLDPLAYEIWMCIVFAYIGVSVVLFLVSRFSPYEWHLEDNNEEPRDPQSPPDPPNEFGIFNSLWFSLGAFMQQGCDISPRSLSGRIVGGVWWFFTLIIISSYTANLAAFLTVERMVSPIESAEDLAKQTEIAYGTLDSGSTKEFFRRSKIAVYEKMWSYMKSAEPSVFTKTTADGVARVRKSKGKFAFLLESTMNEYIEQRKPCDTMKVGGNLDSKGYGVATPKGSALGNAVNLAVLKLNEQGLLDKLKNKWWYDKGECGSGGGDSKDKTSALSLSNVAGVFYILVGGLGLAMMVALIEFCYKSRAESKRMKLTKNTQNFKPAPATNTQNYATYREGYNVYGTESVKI
# Excerpt: as §3, §4, §5, §6
# GluR1 AMPA receptor = biological target: T3, GluR1 AMPA receptor (Rattus norvegicus, UniProt P19490); test: Kainate-induced currents, Xenopus oocytes injected with GluR1 cRNA; type: cell-based
# T3 construct: expressed in transfected cells; host or cells: Xenopus oocytes injected with GluR1 cRNA
# T3 sequence (P19490 19-907): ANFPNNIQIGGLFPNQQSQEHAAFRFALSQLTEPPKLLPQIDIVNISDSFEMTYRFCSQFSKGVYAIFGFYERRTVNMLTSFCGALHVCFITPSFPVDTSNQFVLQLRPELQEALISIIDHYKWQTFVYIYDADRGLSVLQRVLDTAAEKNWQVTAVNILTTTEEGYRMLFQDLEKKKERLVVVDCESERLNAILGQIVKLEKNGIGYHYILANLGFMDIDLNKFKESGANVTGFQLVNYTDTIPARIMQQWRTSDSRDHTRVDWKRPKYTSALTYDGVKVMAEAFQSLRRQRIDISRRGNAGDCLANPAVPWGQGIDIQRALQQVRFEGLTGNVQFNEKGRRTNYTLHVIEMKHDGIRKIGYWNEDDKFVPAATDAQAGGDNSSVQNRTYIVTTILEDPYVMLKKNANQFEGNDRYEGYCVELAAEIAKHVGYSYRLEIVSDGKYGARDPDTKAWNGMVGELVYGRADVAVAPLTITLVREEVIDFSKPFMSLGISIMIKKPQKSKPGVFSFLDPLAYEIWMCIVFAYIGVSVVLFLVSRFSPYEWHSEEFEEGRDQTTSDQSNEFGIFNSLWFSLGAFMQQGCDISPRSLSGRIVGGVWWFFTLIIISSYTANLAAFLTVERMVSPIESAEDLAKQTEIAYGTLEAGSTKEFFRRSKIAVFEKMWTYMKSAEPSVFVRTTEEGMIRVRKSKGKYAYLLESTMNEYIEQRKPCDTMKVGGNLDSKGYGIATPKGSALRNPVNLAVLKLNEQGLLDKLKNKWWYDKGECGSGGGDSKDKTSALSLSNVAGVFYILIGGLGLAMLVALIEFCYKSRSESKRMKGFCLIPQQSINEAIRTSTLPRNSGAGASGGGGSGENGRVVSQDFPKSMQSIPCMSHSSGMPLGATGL
# Excerpt: as §3, §4, §5, §6
# GluR6 kainate receptor = biological target: T4, GluR6 kainate receptor (Rattus norvegicus, UniProt P42260); test: Kainate-induced currents, Xenopus oocytes injected with GluR6 cRNA; type: cell-based
# T4 construct: expressed in transfected cells; host or cells: Xenopus oocytes injected with GluR6 cRNA (concanavalin A treated)
# T4 sequence (P42260 32-908): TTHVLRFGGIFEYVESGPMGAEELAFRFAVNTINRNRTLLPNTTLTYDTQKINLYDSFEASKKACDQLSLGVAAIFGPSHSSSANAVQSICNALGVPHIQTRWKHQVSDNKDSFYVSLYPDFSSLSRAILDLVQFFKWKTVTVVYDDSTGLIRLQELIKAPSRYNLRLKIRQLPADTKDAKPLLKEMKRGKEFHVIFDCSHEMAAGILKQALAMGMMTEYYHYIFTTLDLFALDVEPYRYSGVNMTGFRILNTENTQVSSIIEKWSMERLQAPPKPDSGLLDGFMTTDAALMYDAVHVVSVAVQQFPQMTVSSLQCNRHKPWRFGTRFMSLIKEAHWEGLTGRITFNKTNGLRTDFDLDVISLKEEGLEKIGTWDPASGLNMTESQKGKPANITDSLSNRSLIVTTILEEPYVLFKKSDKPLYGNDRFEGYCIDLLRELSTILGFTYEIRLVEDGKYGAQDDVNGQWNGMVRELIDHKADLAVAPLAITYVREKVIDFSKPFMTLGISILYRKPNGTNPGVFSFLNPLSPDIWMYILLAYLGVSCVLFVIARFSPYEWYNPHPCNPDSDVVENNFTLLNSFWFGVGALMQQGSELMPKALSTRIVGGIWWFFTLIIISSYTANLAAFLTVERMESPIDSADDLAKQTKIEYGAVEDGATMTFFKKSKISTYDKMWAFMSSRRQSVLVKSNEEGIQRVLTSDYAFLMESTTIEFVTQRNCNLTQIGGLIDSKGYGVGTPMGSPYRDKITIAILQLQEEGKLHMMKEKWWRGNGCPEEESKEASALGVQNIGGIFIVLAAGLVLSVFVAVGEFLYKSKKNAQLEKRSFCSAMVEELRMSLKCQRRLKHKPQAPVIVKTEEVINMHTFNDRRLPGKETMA
# Excerpt: as §3, §4, §5, §6
# [6] = GluR3, steroid 100 μM, 100 μM kainate, −100 mV
# [7] = GluR1, steroid 100 μM, 100 μM kainate, −100 mV
# [8] = GluR6, steroid 100 μM, 10 μM kainate, −100 mV
molecule,measurement,setting,value
"CC(=O)[C@H]1CC[C@H]2[C@@H]3CC=C4C[C@@H](OC(=O)C(=O)O)CC[C@]4(C)[C@H]3CC[C@]12C [PHO, pregnenolone hemioxylate]",exacerbation of NMDA-induced neuronal death,[1],48±12%
same,potentiation of INMDA,[2],little activity; also recorded: does not enhance the NMDA-induced current
same,potentiation of NMDA-induced Ca2+ accumulation,[3],62±17%
"CC(=O)[C@H]1CC[C@H]2[C@@H]3CC[C@@H]4C[C@H](OC(=O)C(=O)O)CC[C@]4(C)[C@H]3CC[C@]12C [3α5βHO, pregnanolone hemioxylate]",inhibition of NMDA-induced neuronal death,[1],35±6%
same,inhibition of INMDA,[2],about equally effective in inhibiting INMDA
same,reduction of NMDA-induced rise in [Ca2+]i,[3]; 5 μM NMDA,approximately 40%
"CC(=O)[C@H]1CC[C@H]2[C@@H]3CC[C@H]4C[C@@H](OS(=O)(=O)O)CC[C@]4(C)[C@H]3CC[C@]12C [3α5αS, 3α-hydroxy-5α-pregnan-20-one sulfate]",inhibition of NMDA-induced neuronal death,[1],47±12%
same,modulation of NMDA-induced current,[4],weaker inhibitor
same,effect on NMDA induced current,[5],8±8%
Dehydroepiandrosterone sulfate,Percentage change in kainate response,GluR3 AMPA receptor; [6],−7 ± 1(4) %
same,Percentage change in kainate response,GluR1 AMPA receptor; [7],−23 ± 3(3) %
same,Percentage change in kainate response,GluR6 kainate receptor; [8],−17 ± 5(3) %
same,Percentage change in NMDA response,[5],+8 ± 13(3) %
"CC(=O)[C@H]1CC[C@H]2[C@@H]3CC=C4C[C@@H](OC=O)CC[C@]4(C)[C@H]3CC[C@]12C [PF, pregnenolone formate]",exacerbation of NMDA-induced neuronal death,[1],ineffective
same,potentiation of INMDA,[2],little activity
same,potentiation of NMDA-induced Ca2+ accumulation,"[3]; 5 μM NMDA, steroid 100 μM (pregnenolone 20 μM)",without effect
pregnanolone formate [3α5βF],inhibition of NMDA-induced neuronal death,[1],do not exhibit significant neuroprotective activity
same,inhibition of INMDA,[2],significantly inhibits INMDA
same,reduction of NMDA-induced rise in [Ca2+]i,[3]; 5 μM NMDA,no significant effect
"CC(=O)[C@H]1CC[C@H]2[C@@H]3CC=C4C[C@@H](OC(=O)CCCC(=O)O)CC[C@]4(C)[C@H]3CC[C@]12C [PHG, pregnenolone hemiglutarate]",exacerbation of NMDA-induced neuronal death,[1],54±9%
same,potentiation of INMDA,[2],more than doubling the response
same,potentiation of NMDA-induced Ca2+ accumulation,[3],146±29%
"CC(=O)[C@H]1CC[C@H]2[C@@H]3CC[C@H]4C[C@@H](OS(=O)(=O)O)CC[C@]4(C)[C@H]3CC[C@]12C [3β5αS, 3β-hydroxy-5α-pregnan-20-one sulfate]",exacerbation of NMDA-induced neuronal death,[1],40±7%
same,modulation of NMDA-induced current,[4],weakly potentiates
same,effect on NMDA induced current,[5],33±13%
C[C@]12CC[C@@H]3c4ccc(OS(=O)(=O)O)cc4CC[C@H]3[C@@H]1CC[C@@H]2O [17β-Estradiol-3-sulfate],inhibition of the response to kainate,"GluR3 AMPA receptor; GluR3, steroid 100 μM",no effect
same,Percentage change in kainate response,GluR3 AMPA receptor; [6],−8 ± 4(3) %
same,inhibition of the response to kainate,"GluR1 AMPA receptor; GluR1, steroid 100 μM",no effect
same,Percentage change in kainate response,GluR1 AMPA receptor; [7],−2 ± 2(3) %
same,inhibition of the response to kainate,"GluR6 kainate receptor; GluR6, steroid 100 μM",12%
same,Percentage change in kainate response,GluR6 kainate receptor; [8],−13 ± 4(4) %
same,Percentage change in NMDA response,[5],+12 ± 3(4) %
"CC(=O)C1CCC2C3CC=C4C[C@@H](OC(=O)CCC(=O)O)CC[C@]4(C)C3CC[C@]12C (some centres unmarked) [PHS, pregnenolone hemisuccinate]",Percentage change in kainate response,GluR3 AMPA receptor,−72 ± 3(3) %
same,potentiation of INMDA,[2],more than doubling the response
same,Percentage change in kainate response,GluR1 AMPA receptor,−71 ± 1(4) %
same,Percentage change in kainate response,GluR6 kainate receptor,−15 ± 2(3) %
same,inhibition of the response to kainate,GluR6 kainate receptor,15%
same,Percentage change in NMDA response,[5],+118 ± 16(16) %
"CC(=O)[C@H]1CC[C@H]2[C@@H]3CC[C@@H]4C[C@H](OC(=O)CCCC(=O)O)CC[C@]4(C)[C@H]3CC[C@]12C [3α5βHG, pregnanolone hemiglutarate]",inhibition of NMDA-induced neuronal death,[1],38±6%
same,inhibition of INMDA,[2],about equally effective in inhibiting INMDA
same,reduction of NMDA-induced rise in [Ca2+]i,[3]; 5 μM NMDA,approximately 40%

# From US6623933B1 (priority 1999, dated 2003)
